Measurements reported in the supplement of paper PMC10307832.

Experiments:
Assay in all cases: relative viability (nuclei count vs DMSO), 5 days (fraction); higher = more cells survive
NCI-H647 = system: NCI-H647
Summary of the method: (§1)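 Cells from lung cancer lines were seeded into 1536-well plates and, one day later, dosed by pin tool. Treatments were either a single drug or a fixed dose of an anchor drug with five library-drug doses (not always all listed) in √10 steps. After 5 days, nuclei were stained in a one-step fixation (final 0.05% Triton X-100, 1% formaldehyde, 1 ug/ml Hoechst) and counted on 4× images, and relative viability is the treated-to-vehicle nuclei ratio, as the median of duplicate plates.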

EKVX = system: EKVX
Summary of the method: as §1

HARA = system: HARA
Summary of the method: as §1

SK-MES-1 = system: SK-MES-1
Summary of the method: as §1

NCI-H2087 = system: NCI-H2087
Summary of the method: as §1

NCI-H1792 = system: NCI-H1792
Summary of the method: as §1

LC-2-ad = system: LC-2-ad
Summary of the method: as §1

NCI-H1395 = system: NCI-H1395
Summary of the method: as §1

NCI-H1734 = system: NCI-H1734
Summary of the method: as §1

NCI-H2342 = system: NCI-H2342
Summary of the method: as §1

NCI-H2170 = system: NCI-H2170
Summary of the method: as §1

SK-LU-1 = system: SK-LU-1
Summary of the method: as §1

BEN = system: BEN
Summary of the method: as §1

NCI-H2405 = system: NCI-H2405
Summary of the method: as §1

NCI-H1437 = system: NCI-H1437
Summary of the method: as §1

NCI-H661 = system: NCI-H661
Summary of the method: as §1

HCC-366 = system: HCC-366
Summary of the method: as §1

NCI-H596 = system: NCI-H596
Summary of the method: as §1

NCI-H2228 = system: NCI-H2228
Summary of the method: as §1

NCI-H1355 = system: NCI-H1355
Summary of the method: as §1

NCI-H2009 = system: NCI-H2009
Summary of the method: as §1

HCC-827 = system: HCC-827
Summary of the method: as §1

LOU-NH91 = system: LOU-NH91
Summary of the method: as §1

## CC1(C)CCC(c2ccc(Cl)cc2)=C(CN2CCN(c3ccc(C(=O)NS(=O)(=O)c4ccc(N[C@H](CCN5CCOCC5)CSc5ccccc5)c(S(=O)(=O)C(F)(F)F)c4)cc3)CC2)C1 [Navitoclax] + N=C(N)NC(=N)NCCc1ccccc1 [Phenformin] (partner 250 µM)
NCI-H647; first compound 0.005 µM
  relative viability: 0.536
NCI-H647; first compound 0.01581 µM
  relative viability: 0.488
NCI-H647; first compound 0.05 µM
  relative viability: 0.651
NCI-H647; first compound 0.1581 µM
  relative viability: 0.323
NCI-H647; first compound 0.5 µM
  relative viability: 0.445
EKVX; first compound 0.005 µM
  relative viability: 0.262
EKVX; first compound 0.01581 µM
  relative viability: 0.238
EKVX; first compound 0.05 µM
  relative viability: 0.226
EKVX; first compound 0.1581 µM
  relative viability: 0.239
EKVX; first compound 0.5 µM
  relative viability: 0.235
HARA; first compound 0.005 µM
  relative viability: 0.491
HARA; first compound 0.01581 µM
  relative viability: 0.554
HARA; first compound 0.1581 µM
  relative viability: 0.415
HARA; first compound 0.5 µM
  relative viability: 0.477
SK-MES-1; first compound 0.005 µM
  relative viability: 0.581
SK-MES-1; first compound 0.01581 µM
  relative viability: 0.746
SK-MES-1; first compound 0.05 µM
  relative viability: 0.684
SK-MES-1; first compound 0.1581 µM
  relative viability: 0.681
SK-MES-1; first compound 0.5 µM
  relative viability: 0.722
NCI-H2087; first compound 0.005 µM
  relative viability: 0.475
NCI-H2087; first compound 0.01581 µM
  relative viability: 0.452
NCI-H2087; first compound 0.1581 µM
  relative viability: 0.407
NCI-H2087; first compound 0.5 µM
  relative viability: 0.428
NCI-H1792; first compound 0.005 µM
  relative viability: 0.258
NCI-H1792; first compound 0.01581 µM
  relative viability: 0.179
NCI-H1792; first compound 0.5 µM
  relative viability: 0.112
LC-2-ad; first compound 0.005 µM
  relative viability: 0.577
LC-2-ad; first compound 0.01581 µM
  relative viability: 0.653
LC-2-ad; first compound 0.05 µM
  relative viability: 0.58
LC-2-ad; first compound 0.1581 µM
  relative viability: 0.505
LC-2-ad; first compound 0.5 µM
  relative viability: 0.572
NCI-H1395; first compound 0.005 µM
  relative viability: 0.461
NCI-H1395; first compound 0.01581 µM
  relative viability: 0.501
NCI-H1395; first compound 0.05 µM
  relative viability: 0.451
NCI-H1395; first compound 0.1581 µM
  relative viability: 0.455
NCI-H1395; first compound 0.5 µM
  relative viability: 0.497
NCI-H1734; first compound 0.005 µM
  relative viability: 0.367
NCI-H1734; first compound 0.01581 µM
  relative viability: 0.461
NCI-H1734; first compound 0.1581 µM
  relative viability: 0.371
NCI-H1734; first compound 0.5 µM
  relative viability: 0.341
NCI-H2342; first compound 0.005 µM
  relative viability: 0.602
NCI-H2342; first compound 0.01581 µM
  relative viability: 0.627
NCI-H2342; first compound 0.05 µM
  relative viability: 0.486
NCI-H2342; first compound 0.1581 µM
  relative viability: 0.599
NCI-H2342; first compound 0.5 µM
  relative viability: 0.624
NCI-H2170; first compound 0.005 µM
  relative viability: 0.442
NCI-H2170; first compound 0.01581 µM
  relative viability: 0.47
NCI-H2170; first compound 0.05 µM
  relative viability: 0.391
NCI-H2170; first compound 0.1581 µM
  relative viability: 0.42
NCI-H2170; first compound 0.5 µM
  relative viability: 0.347
SK-LU-1; first compound 0.005 µM
  relative viability: 0.552
SK-LU-1; first compound 0.01581 µM
  relative viability: 0.608
SK-LU-1; first compound 0.05 µM
  relative viability: 0.501
SK-LU-1; first compound 0.1581 µM
  relative viability: 0.463
SK-LU-1; first compound 0.5 µM
  relative viability: 0.513
BEN; first compound 0.005 µM
  relative viability: 0.246
BEN; first compound 0.01581 µM
  relative viability: 0.265
BEN; first compound 0.05 µM
  relative viability: 0.248
BEN; first compound 0.1581 µM
  relative viability: 0.294
BEN; first compound 0.5 µM
  relative viability: 0.232
NCI-H2405; first compound 0.005 µM
  relative viability: 0.413
NCI-H2405; first compound 0.01581 µM
  relative viability: 0.44
NCI-H2405; first compound 0.05 µM
  relative viability: 0.376
NCI-H2405; first compound 0.1581 µM
  relative viability: 0.4
NCI-H2405; first compound 0.5 µM
  relative viability: 0.303
NCI-H1437; first compound 0.005 µM
  relative viability: 0.269
NCI-H1437; first compound 0.01581 µM
  relative viability: 0.333
NCI-H1437; first compound 0.05 µM
  relative viability: 0.334
NCI-H1437; first compound 0.1581 µM
  relative viability: 0.314
NCI-H1437; first compound 0.5 µM
  relative viability: 0.41
NCI-H661; first compound 0.005 µM
  relative viability: 0.253
NCI-H661; first compound 0.01581 µM
  relative viability: 0.298
NCI-H661; first compound 0.05 µM
  relative viability: 0.262
NCI-H661; first compound 0.1581 µM
  relative viability: 0.257
NCI-H661; first compound 0.5 µM
  relative viability: 0.258
HCC-366; first compound 0.005 µM
  relative viability: 0.708
HCC-366; first compound 0.01581 µM
  relative viability: 0.616
HCC-366; first compound 0.1581 µM
  relative viability: 0.619
HCC-366; first compound 0.5 µM
  relative viability: 0.588
NCI-H596; first compound 0.005 µM
  relative viability: 0.742
NCI-H596; first compound 0.01581 µM
  relative viability: 0.71
NCI-H596; first compound 0.1581 µM
  relative viability: 0.67
NCI-H596; first compound 0.5 µM
  relative viability: 0.815
NCI-H2228; first compound 0.005 µM
  relative viability: 0.35
NCI-H2228; first compound 0.01581 µM
  relative viability: 0.385
NCI-H2228; first compound 0.1581 µM
  relative viability: 0.276
NCI-H2228; first compound 0.5 µM
  relative viability: 0.418
NCI-H1355; first compound 0.005 µM
  relative viability: 0.48
NCI-H1355; first compound 0.01581 µM
  relative viability: 0.467
NCI-H1355; first compound 0.05 µM
  relative viability: 0.388
NCI-H1355; first compound 0.1581 µM
  relative viability: 0.436
NCI-H1355; first compound 0.5 µM
  relative viability: 0.463
NCI-H2009; first compound 0.005 µM
  relative viability: 0.495
NCI-H2009; first compound 0.01581 µM
  relative viability: 0.519
NCI-H2009; first compound 0.05 µM
  relative viability: 0.435
NCI-H2009; first compound 0.1581 µM
  relative viability: 0.47
NCI-H2009; first compound 0.5 µM
  relative viability: 0.484
HCC-827; first compound 0.005 µM
  relative viability: 0.404
HCC-827; first compound 0.01581 µM
  relative viability: 0.434
HCC-827; first compound 0.05 µM
  relative viability: 0.355
HCC-827; first compound 0.1581 µM
  relative viability: 0.396
HCC-827; first compound 0.5 µM
  relative viability: 0.382
LOU-NH91; first compound 0.005 µM
  relative viability: 0.8
LOU-NH91; first compound 0.01581 µM
  relative viability: 0.693
LOU-NH91; first compound 0.05 µM
  relative viability: 0.636
LOU-NH91; first compound 0.1581 µM
  relative viability: 0.652
LOU-NH91; first compound 0.5 µM
  relative viability: 0.427
